Structures can show the parent of a compound that is named as a salt.
Legend:
[1] = target: Recombinant human JAK3 enzyme (JAK3 kinase region; Ala795-Ser1124) (Homo sapiens, UniProt P52333); experiment: JAK3 Kinase Assay (Kinase-Glo luminescent, ATP consumption)
Method: Recombinant human JAK3 enzyme (JAK3 kinase region; Ala795-Ser1124) was purchased from Carna Biosciences, Inc.
The reaction was conducted in a kinase buffer (reaction volume: a total of 50 μl) containing 8 mM MOPS (pH 7.0), 0.2 mM EDTA, a test compound solution prepared to each concentration and 0.5 μg/ml JAK3 enzyme using a 96-well polystyrene plate (clear-bottom white-wall). […] After incubating them at room temperature for 2 hours, 50 μl of Kinase-Glo Luminescent Kinase Assay reagent (Promega) was added to each well, and further incubated at room temperature for 10 minutes. Using a chemiluminescence microplate reader MicroLumat LB96P (Berthold), chemiluminescence intensity was measured to quantitate the amount of ATP remaining after reaction. From the amount of ATP consumed in the phosphorylation reaction, the inhibition rate (%) of JAK3 kinase activity was determined.

[2] = read-out: Inhibition rate (%) of JAK3 kinase activity

Chain of Recombinant human JAK3 enzyme (JAK3 kinase region; Ala795-Ser1124) (P52333 795-1124): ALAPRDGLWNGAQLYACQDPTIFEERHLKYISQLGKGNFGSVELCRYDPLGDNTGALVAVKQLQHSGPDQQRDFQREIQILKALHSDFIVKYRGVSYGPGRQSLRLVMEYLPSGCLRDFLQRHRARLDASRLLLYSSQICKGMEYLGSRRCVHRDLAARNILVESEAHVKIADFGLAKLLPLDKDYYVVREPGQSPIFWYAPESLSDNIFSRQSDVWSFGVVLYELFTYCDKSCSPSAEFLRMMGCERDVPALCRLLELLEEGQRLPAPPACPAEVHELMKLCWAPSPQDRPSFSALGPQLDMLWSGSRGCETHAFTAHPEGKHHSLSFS

SMILES | inhibition at 0.1 µM [1, 2] | melting point | Inhibition rate (%) of JAK3 kinase activity ([1]; test compound at 0.1 μM) | inhibition at 1 µM [1, 2]
COC1CCN(c2ccc(Nc3cc(NCc4cc(F)cc(F)c4)c(C(N)=O)cn3)cc2)CC1 [Example 190, 4-[(3,5-difluorobenzyl)amino]-6-{[4-(4-methoxypiperidino)phenyl]amino}pyridine-3-carboxyamide] | 89% | 202.9 to 203.3 °C (dec.) |  | 
NCCN1CCN(c2ccc(Nc3cc(NCc4cc(F)cc(F)c4)c(CC(N)=O)cn3)cc2)CC1 [Example 248, 6-({4-{4-(2-aminoethyl)piperazin-1-yl]phenyl}amino]-4-[(3,5-difluorobenzyl)amino]pyridine-3-carboxyamide] |  | 190 to 194 °C (dec.) |  | 
CC(C)NC(=O)N1CCC(Nc2ccc(Nc3cc(NCc4ccccc4)c(C(N)=O)cn3)cc2)CC1 [Example 291, 4-(benzylamino)-6-[(4-{[1-(propan-2-ylcarbamoyl)piperidin-4-yl]amino}phenyl)amino]pyridine-3-carboxyamide] | 79% | 166 to 167 °C |  | 
CC(C)C(=O)N1CCN(c2ccc(Nc3cc(NCc4ccccc4)c(C(N)=O)cn3)cc2)CC1 [Example 259, 4-(benzylamino)-6-({4-[4-(2-methylpropanoyl)piperazin-1-yl]phenyl}amino)pyridine-3-carboxyamide] | 67% | 218 to 220 °C (dec.) |  | 
CCCC(=O)N1CCN(c2ccc(Nc3cc(NCc4ccccc4)c(C(N)=O)cn3)cc2)CC1 [Example 258, 4-(benzylamino)-6-{[4-(4-butanoylpiperazin-1-yl)phenyl]amino}pyridine-3-carboxyamide] | 60% | 233.5 to 235.2 °C (dec.) |  | 
NC(=O)c1cnc(Nc2cccc(N3CCOCC3)c2)cc1NCc1cc(F)cc(F)c1 [Example 131, 4-[(3,5-difluorobenzyl)amino]-6-[(3-morpholinophenyl)amino]pyridine-3-carboxyamide] | 91% | 197 to 198 °C (dec.) |  | 
N#CCCCN1CCN(c2ccc(Nc3cc(NCc4cccc([N+](=O)[O-])c4)c(C(N)=O)cn3)cc2)CC1 [Example 242, 6-({4-[4-(3-cyanopropyl)piperazin-1-yl]phenyl}amino)-4-[(3-nitrobenzyl)amino]pyridine-3-carboxyamide] | 77% | 190 to 191 °C (dec.) |  | 
NC(=O)c1cnc(Nc2ccc(N3CCCNCC3)cc2)cc1NCc1ccccc1 [Example 226, 4-(benzylamino)-6-{[4-(1,4-diazepan-1-yl)phenyl]amino}pyridine-3-carboxyamide] | 61% | 165 to 167 °C |  | 
CC(=O)N1CCCN(c2ccc(Nc3cc(NCc4ccccc4)c(C(N)=O)cn3)cc2)CC1 [Example 256, 6-{[4-(4-acetyl-1,4-diazepan-1-yl)phenyl]amino}-4-(benzylamino)pyridine-3-carboxyamide] | 77% | 224 to 227 °C |  | 
CCN(CC)CC(=O)N1CCN(c2ccc(Nc3cc(NCc4cccc([N+](=O)[O-])c4)c(C(N)=O)cn3)cc2)CC1 [Example 276, 6-({4-[4-(N,N-diethylglycyl)piperazin-1-yl]phenyl}amino)-4-[(3-nitrobenzyl)amino]pyridine-3-carboxyamide] | 68% | 190 to 191 °C (dec.) |  | 
Cc1c(F)cccc1CNc1cc(Nc2ccc(N3CCOCC3)cc2)ncc1C(N)=O [Example 100, 4-[(3-fluoro-2-methylbenzyl)amino]-6-[(4-morpholinophenyl)amino]pyridine-3-carboxyamide] | 69% | 229 to 230 °C |  | 
CC(C)S(=O)(=O)N1CCC(c2ccc(Nc3cc(NCc4cc(F)cc(F)c4)c(C(N)=O)cn3)cc2)CC1 [Example 296, 4-[(3,5-difluorobenzyl)amino]-6-({4-[1-(propan-2-ylsulfonyl)piperidin-4-yl]phenyl}amino) pyridine-3-carboxyamide] |  | 142 to 144 °C (dec.) |  | 
CS(=O)(=O)NCCN1CCN(c2ccc(Nc3cc(NCc4cc(F)cc(F)c4)c(C(N)=O)cn3)cc2)CC1 [Example 249, 4-[(3,5-difluorobenzyl)amino]-6-{[4-(4-{2-[(methylsulfonyl)amino]ethyl}piperazin-1-yl]phenyl]amino}pyridine-3-carboxyamide] | 81% | 216 to 219 °C (dec.) |  | 
CC(C)S(=O)(=O)N1CCN(c2ccc(Nc3cc(NCc4cc(F)cc(F)c4)c(C(N)=O)cn3)cc2)CC1 [Example 170, 4-[(3,5-difluorobenzyl)amino]-6-({4-[4-(propan-2-ylsulfonyl)piperazin-1-yl]phenyl}amino) pyridine-3-carboxyamide] | 68% | 239 to 242 °C (dec.) |  | 
CNCCN1CCN(c2ccc(Nc3cc(NCc4cc(F)cc(F)c4)c(C(N)=O)cn3)cc2)CC1 [Example 251, 4-[(3,5-difluorobenzyl)amino]-6-[(4-{4-[2-(methylamino)ethyl]piperazin-1-yl}phenyl)amino]pyridine-3-carboxyamide] | 88% | 113 to 120 °C (dec.) |  | 
NC(=O)c1cnc(Nc2ccc(NC3CCNCC3)cc2)cc1NCc1ccccc1 [Example 289, 4-(benzylamino)-6-{[4-(piperidin-4-ylamino)phenyl]amino}pyridine-3-carboxyamide] | 74% | 169 to 172 °C (dec.) |  | 

SMILES | inhibition at 0.1 µM [1, 2] | melting point | Inhibition rate (%) of JAK3 kinase activity ([1]; test compound at 0.1 μM) | inhibition at 1 µM [1, 2]
NCCCc1ccc(Nc2cc(NCc3cc(F)cc(F)c3)c(C(N)=O)cn2)cc1 [Example 201, 6-{[4-(3-aminopropyl)phenyl]amino}-4-[(3,5-difluorobenzyl)amino]pyridine-3-carboxyamide] | 60% | 180 to 181 °C |  | 
CCN(CC)CCN1CCN(c2ccc(Nc3cc(NCc4cccc([N+](=O)[O-])c4)c(C(N)=O)cn3)cc2)CC1 [Example 235, 6-[(4-{4-[2-(diethylamino)ethyl]piperazin-1-yl}phenyl)amino]-4-[(3-nitrobenzyl)amino]pyridine-3-carboxyamide] | 82% | 165 to 166 °C |  | 
CS(=O)(=O)Nc1ccc(Nc2cc(NCc3cc(F)cc(F)c3)c(C(N)=O)cn2)cc1 [Example 159, 4-[(3,5-difluorobenzyl)amino]-6-({4-[(methylsulfonyl)amino]phenyl}amino)pyridine-3-carboxyamide] | 100% | 236 to 238 °C (dec.) |  | 
COc1cc(Nc2cc(NCc3cc(F)cc(F)c3)c(C(N)=O)cn2)ccc1N1CCOCC1 [Example 128, 4-[(3,5-difluorobenzyl)amino]-6-[(3-methoxy-4-morpholinophenyl)amino]pyridine-3-carboxyamide] | 92% | 229.6 to 230 °C (dec.) |  | 
NC(=O)c1cnc(Nc2ccc(N3CCC(CCO)CC3)cc2)cc1NCc1cccc(F)c1F [Example 178, 4-[(2,3-difluorobenzyl)amino]-6-({4-{4-(2-hydroxyethyl)piperidino]phenyl}amino)pyridine-3-carboxyamide] | 90% |  |  | 
CCN(CC)CC(=O)N1CCN(c2ccc(Nc3cc(NCc4cc(F)cc(F)c4)c(C(N)=O)cn3)cc2)CC1 [Example 275, 6-({4-[4-(N,N-diethylglycyl)piperazin-1-yl]phenyl}amino)-4-[(3,5-difluorobenzyl)amino]pyridine-3-carboxyamide] | 96% |  |  | 
CS(=O)(=O)NCCCc1ccc(Nc2cc(NCc3cc(F)cc(F)c3)c(C(N)=O)cn2)cc1 [Example 202] |  |  | 88% | 
NC(=O)c1cnc(-n2cnc3ccccc32)cc1NCc1cc(F)cc(F)c1 [Example 365, 6-(1H-benzimidazol-1-yl)-4-[(3,5-difluorobenzyl)amino]pyridine-3-carboxyamide] |  |  |  | 62%
NC(=O)c1cnc(Nc2ccc(NC(=O)C3CCNCC3)cc2)cc1NCc1ccccc1 [Example 314, 4-(benzylamino)-6-({4-[piperidin-4-ylcarbonyl]amino]phenyl}amino)pyridine-3-carboxyamide hydrochloride] | 60% |  |  | 
N#CCC(=O)N1CCN(c2ccc(Nc3cc(NCc4cccc(F)c4F)c(C(N)=O)cn3)cc2)CC1 [Example 263, 6-({4-[4-(cyanoacetyl)piperazin-1-yl]phenyl}amino)-4-[(2,3-difluorobenzyl)amino]pyridine-3-carboxyamide] | 98% |  |  | 
C[C@@H]1CN(c2ccc(Nc3cc(NCc4cc(F)cc(F)c4)c(C(N)=O)cn3)cc2)C[C@H](C)N1 [Example 141, 4-[(3,5-difluorobenzyl)amino]-6-({4-[(3R,5S)-3,5-dimethylpiperazin-1-yl]phenyl}amino) pyridine-3-carboxyamide] | 83% |  |  | 
NC(=O)c1cnc(Nc2ccc(N3CCOCC3)cc2)cc1NCc1cccc([N+](=O)[O-])c1 [Example 102, 6-[(4-morpholinophenyl)amino]-4-[(3-nitrobenzyl)amino]pyridine-3-carboxyamide] | 53% |  |  | 
COCCNc1ccc(Nc2cc(NCc3cc(F)cc(F)c3)c(C(N)=O)cn2)cc1 [Example 233, 4-[(3,5-difluorobenzyl)amino]-6-({4-[(2-methoxyethyl)amino]phenyl}amino)pyridine-3-carboxyamide] | 74% |  |  | 
CC(C)S(=O)(=O)Nc1ccc(Nc2cc(NCc3cc(F)cc(F)c3)c(C(N)=O)cn2)cc1 [Example 302, 4-[(3,5-difluorobenzyl)amino]-6-({4-[(propan-2-ylsulfonyl)amino]phenyl}amino)pyridine-3-carboxyamide] | 90% |  |  | 
COc1ccc(F)cc1CNc1cc(Nc2ccc(N3CCOCC3)cc2)ncc1C(N)=O [Example 99, 4-[(5-fluoro-2-methoxybenzyl)amino]-6-[(4-morpholinophenyl)amino]pyridine-3-carboxyamide] | 80% |  |  | 
CC(C)N1CCN(c2ccc(Nc3cc(NCc4cccc(F)c4F)c(C(N)=O)cn3)cc2)CC1 [Example 150, 4-[(2,3-difluorobenzyl)amino]-6-({4-[4-(propan-2-yl)piperazin-1-yl]phenyl}amino)pyridine-3-carboxyamide] | 66% |  |  | 
